Measured values reported in the OPERA property sets (Mansouri et al. 2018).

SMILES | logP
N#CN=[N+]([O-])c1ccc(C(F)(F)F)cc1 | 2.47
N#CN=[N+]([O-])c1ncccn1 | -0.13
Cc1ccc([N+]([O-])=NC#N)cc1 | 2.39
N#CN=[N+]([O-])c1cccc(C#N)c1 | 1.15
N#CN=[N+]([O-])c1cnccn1 | 0.1
N#C/N=[N+](\[O-])c1ccc(Br)cc1 | 2.5
N#C/N=[N+](\[O-])c1ccc([N+](=O)[O-])cc1 | 1.51
COc1ccc(/[N+]([O-])=N/C#N)cc1 | 2.15
N#C/N=[N+](\[O-])c1cccc(Br)c1 | 2.56
N#CN=[N+]([O-])c1ccc(Cl)cc1 | 2.33
CN(C)c1ccc(/[N+]([O-])=N/C#N)cc1 | 2.3
N#CN=[N+]([O-])c1ccc(C#N)cc1 | 1.18
COc1cccc(/[N+]([O-])=N/C#N)c1 | 2.24
N#C/N=[N+](\[O-])c1cccc(F)c1 | 1.85
CCNc1nonc1N | 0.51
N#CN=[N+]([O-])c1cccc(C(F)(F)F)c1 | 2.52
N#C/N=[N+](\[O-])c1cccc(Cl)c1 | 2.4
N#C/N=[N+](\[O-])c1cccc([N+](=O)[O-])c1 | 1.45
N#CN=[N+]([O-])c1ccccc1 | 1.87
N#CN=[N+]([O-])c1ccnc2ccccc12 | 2.07
N#CN=[N+]([O-])c1ccc(F)cc1 | 1.8
N#CN=[N+]([O-])c1cccc2ccccc12 | 3.17
Cc1cccc([N+]([O-])=NC#N)c1 | 2.49
N#C/N=[N+](\[O-])c1ccccn1 | 0.53
